# Measured values from ChEMBL document CHEMBL1201862, “PubChem BioAssay data set” (2004).
# Active and inactive are the calls of the source.
# Legend:
# [1] = biological target: T1, Voltage-gated N-type calcium channel alpha-1B subunit/Amyloid beta A4 precursor protein-binding family A member 1 (Homo sapiens, UniProt Q00975+Q02410); format: protein assay
# [2] = biological target: T1, Voltage-gated N-type calcium channel alpha-1B subunit/Amyloid beta A4 precursor protein-binding family A member 1; format: protein assay; remark: listed apart in the source
# [3] = biological target: Induced myeloid leukemia cell differentiation protein Mcl-1 (Homo sapiens, UniProt Q07820); format: functional
# [4] = viability of HCT116 lacking mutant beta-catenin – cell-based, human colon tumor, dose response (AID 1045); format: functional;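 note: HCT116 colon tumor cells with beta catenin knocked out; cells exposed to compound for 60 hours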
# [5] = NIH3T3 cell viability loss – ATP luminescence, mouse fibroblasts, counter-screen, dose response (AID 2010); format: functional, cell-based;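 note: cells exposed to compound for about 90 hours before reading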
# HEK293 [6] = assay: cells; format: functional, cell-based; settings: Homo sapiens
# [7] = viability of PTEN-deleted HCT116 cells – cell-based, HCT116 PTEN knockout, dose response (AID 1047); format: functional;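 note: HCT116 colon tumor cells with PTEN knocked out; cells exposed to compound for 60 hours before readout; potency for loss of cell viability measured by luminescence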
# HEK293 [8] = assay: cells; format: functional, cell-based; settings: Homo sapiens; remark: listed apart in the source
# [9] = Trypanosoma cruzi growth suppression in host cells – NIH3T3 host cells, beta-gal luminescence, confirmation (AID 2044); format: functional, cell-based;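 note: intracellular parasites grown in NIH/3T3 mouse fibroblasts as host cells; luminescent beta-galactosidase reporter signal from transgenic T. cruzi replicating inside host cells; inhibitors lower the luminescence signal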
# HEK293 [10] = assay: EBV LMP1 TES2 canonical NF-kB signalling blockers – cell-based, HEK293, luciferase, cherry-pick, dose response (AID 588343); format: functional; settings: Homo sapiens
# HEK293 [11] = assay: NOD2 signaling inhibitors in MDP-stimulated cells, cell-based, uHTS, luminescence (AID 2001); format: functional; settings: Homo sapiens
# HEK293 [12] = assay: inhibition of NOD1-driven NF-kB reporter – cell-based, luminescence, uHTS, primary screen (AID 1578); format: functional; settings: Homo sapiens
# [13] = biological target: T2, Sentrin-specific protease 6 (Homo sapiens, UniProt Q9GZR1); format: functional;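 note: Luminescence-based dose-response confirmatory assay of SENP6 inhibition, following up an ultra-high-throughput screen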
# T2 sequence (Q9GZR1 whole entry): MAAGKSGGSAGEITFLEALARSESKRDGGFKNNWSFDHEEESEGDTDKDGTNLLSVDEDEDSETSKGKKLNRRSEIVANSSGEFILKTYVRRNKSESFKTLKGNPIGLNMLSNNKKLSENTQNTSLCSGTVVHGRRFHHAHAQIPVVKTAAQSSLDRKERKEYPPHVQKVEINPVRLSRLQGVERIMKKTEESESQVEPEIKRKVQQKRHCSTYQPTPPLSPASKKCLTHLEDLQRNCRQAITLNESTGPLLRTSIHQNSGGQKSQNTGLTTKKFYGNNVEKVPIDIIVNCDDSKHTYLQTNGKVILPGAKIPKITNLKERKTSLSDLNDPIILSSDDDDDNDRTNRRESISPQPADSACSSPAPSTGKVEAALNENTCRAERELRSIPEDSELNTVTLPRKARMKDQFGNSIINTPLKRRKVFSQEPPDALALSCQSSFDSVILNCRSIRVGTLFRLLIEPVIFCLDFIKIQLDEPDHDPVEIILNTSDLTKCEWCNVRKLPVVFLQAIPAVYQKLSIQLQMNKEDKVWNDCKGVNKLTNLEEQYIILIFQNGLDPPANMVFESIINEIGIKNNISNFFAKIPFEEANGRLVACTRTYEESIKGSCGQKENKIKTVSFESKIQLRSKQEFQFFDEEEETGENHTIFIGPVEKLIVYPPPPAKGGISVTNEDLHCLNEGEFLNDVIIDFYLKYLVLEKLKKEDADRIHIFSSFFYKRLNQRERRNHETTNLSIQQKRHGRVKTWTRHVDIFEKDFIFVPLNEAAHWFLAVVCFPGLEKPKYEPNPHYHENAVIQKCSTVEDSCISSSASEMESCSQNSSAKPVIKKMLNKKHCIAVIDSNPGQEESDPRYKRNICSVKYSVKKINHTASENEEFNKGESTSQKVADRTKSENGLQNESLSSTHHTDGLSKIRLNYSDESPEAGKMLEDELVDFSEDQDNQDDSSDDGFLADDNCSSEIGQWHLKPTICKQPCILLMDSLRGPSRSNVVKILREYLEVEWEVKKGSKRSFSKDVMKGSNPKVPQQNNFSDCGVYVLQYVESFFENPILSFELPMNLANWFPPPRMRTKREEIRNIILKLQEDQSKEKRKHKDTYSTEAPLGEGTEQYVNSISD
# [14] = biological target: T3, Sentrin-specific protease 7 (Homo sapiens, UniProt Q9BQF6); format: functional;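 note: Luminescence-based dose-response confirmation of ultra-high-throughput screening hits, measuring inhibition of SENP7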
# T3 sequence (Q9BQF6 whole entry): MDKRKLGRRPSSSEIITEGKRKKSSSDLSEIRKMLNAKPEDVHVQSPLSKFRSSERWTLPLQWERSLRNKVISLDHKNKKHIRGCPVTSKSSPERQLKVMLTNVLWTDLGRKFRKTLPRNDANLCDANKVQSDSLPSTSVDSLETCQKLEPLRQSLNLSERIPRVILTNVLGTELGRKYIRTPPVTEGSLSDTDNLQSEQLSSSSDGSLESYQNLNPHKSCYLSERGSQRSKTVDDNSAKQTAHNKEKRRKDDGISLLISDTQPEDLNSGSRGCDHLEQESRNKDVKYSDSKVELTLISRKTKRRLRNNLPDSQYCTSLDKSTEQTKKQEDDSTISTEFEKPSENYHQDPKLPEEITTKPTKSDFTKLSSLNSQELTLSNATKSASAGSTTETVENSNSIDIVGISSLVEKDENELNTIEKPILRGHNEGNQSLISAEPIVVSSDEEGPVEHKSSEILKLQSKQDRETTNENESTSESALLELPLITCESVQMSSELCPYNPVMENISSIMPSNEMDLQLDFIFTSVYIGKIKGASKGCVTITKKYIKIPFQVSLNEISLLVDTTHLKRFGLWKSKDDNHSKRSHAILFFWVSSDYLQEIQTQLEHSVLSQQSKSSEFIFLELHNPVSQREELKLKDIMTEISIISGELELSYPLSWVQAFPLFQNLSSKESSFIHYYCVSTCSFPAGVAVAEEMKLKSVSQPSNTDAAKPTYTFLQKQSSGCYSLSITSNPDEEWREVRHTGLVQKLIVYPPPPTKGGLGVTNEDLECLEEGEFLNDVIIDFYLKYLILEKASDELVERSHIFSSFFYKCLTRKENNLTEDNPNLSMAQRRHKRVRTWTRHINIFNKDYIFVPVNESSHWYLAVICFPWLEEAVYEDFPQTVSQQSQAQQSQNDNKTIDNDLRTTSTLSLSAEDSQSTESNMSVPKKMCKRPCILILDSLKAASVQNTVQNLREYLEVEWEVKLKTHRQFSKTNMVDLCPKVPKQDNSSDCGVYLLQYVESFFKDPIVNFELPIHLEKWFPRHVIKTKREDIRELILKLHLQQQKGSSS
# Caspase-3 = biological target: T4, Caspase-3 (Homo sapiens, UniProt P42574); format: functional;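 note: Dose-response selectivity test against caspase-3 for candidate inhibitors of sentrin-specific proteases (SENPs)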
# T4 sequence (P42574 whole entry): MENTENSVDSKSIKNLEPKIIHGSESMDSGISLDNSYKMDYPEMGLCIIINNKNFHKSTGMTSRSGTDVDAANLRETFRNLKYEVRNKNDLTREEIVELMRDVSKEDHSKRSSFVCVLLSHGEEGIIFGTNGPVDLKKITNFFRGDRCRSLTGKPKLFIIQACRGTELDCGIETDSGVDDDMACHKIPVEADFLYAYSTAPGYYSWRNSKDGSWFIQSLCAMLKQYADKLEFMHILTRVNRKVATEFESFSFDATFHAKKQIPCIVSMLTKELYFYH
# [15] = biological target: T5, Sentrin-specific protease 8 (Homo sapiens, UniProt Q96LD8); format: functional;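 note: luminescence read-out of SENP8 inhibition, dose-response confirmation following an ultra-high-throughput screen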
# T5 sequence (Q96LD8 whole entry): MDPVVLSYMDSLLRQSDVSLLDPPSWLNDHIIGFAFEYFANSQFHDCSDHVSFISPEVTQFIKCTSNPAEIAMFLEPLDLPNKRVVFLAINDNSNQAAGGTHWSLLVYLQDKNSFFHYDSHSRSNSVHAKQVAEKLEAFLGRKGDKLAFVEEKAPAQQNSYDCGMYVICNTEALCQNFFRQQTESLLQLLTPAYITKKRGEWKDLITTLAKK
# [16] = biological target: T6, Polyadenylate-binding protein 1 (Homo sapiens, UniProt P11940); assay: MLLE domain peptide-binding blockers, IC50 – biochemical, fluorescence polarization, FITC-PAM2 peptide, dose response (AID 602259); format: functional; settings: read-out: IC50_Mean
# [17] = biological target: FAD-linked sulfhydryl oxidase ALR (Homo sapiens, UniProt P55789); assay: ALR-catalysed DTT oxidation blockers – biochemical, H2O2 detection, luminescence, cherry-pick, dose response (AID 493248)
# Large T antigen = Large T antigen (Simian virus 40, UniProt P03070); format: functional, Betapolyomavirus macacae;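 note: Confirmatory-stage PubChem screen for compounds that inhibit SV40 T antigen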
# [18] = biological target: T6, Polyadenylate-binding protein 1; assay: MLLE binding blockers, Cy5 peptide tracer – biochemical, fluorescence polarization, Cy5-PAM2 peptide, secondary, miRNA deadenylation inhibitor project, dose response (AID 602260); format: functional; settings: read-out: IC50_Mean
# Protein RecA = biological target: T7, Protein RecA (Mycobacterium tuberculosis, UniProt P9WHJ3); assay: Fluorescence Cell-Free Homogeneous Dose Retest to Identify Inhibitors of RecA-Intein Splicing Activity. [Related pubchem assays (depositor defined):AID2097, AID2223, AID489010, AID492950]; format: functional
# T7 sequence (P9WHJ3 whole entry): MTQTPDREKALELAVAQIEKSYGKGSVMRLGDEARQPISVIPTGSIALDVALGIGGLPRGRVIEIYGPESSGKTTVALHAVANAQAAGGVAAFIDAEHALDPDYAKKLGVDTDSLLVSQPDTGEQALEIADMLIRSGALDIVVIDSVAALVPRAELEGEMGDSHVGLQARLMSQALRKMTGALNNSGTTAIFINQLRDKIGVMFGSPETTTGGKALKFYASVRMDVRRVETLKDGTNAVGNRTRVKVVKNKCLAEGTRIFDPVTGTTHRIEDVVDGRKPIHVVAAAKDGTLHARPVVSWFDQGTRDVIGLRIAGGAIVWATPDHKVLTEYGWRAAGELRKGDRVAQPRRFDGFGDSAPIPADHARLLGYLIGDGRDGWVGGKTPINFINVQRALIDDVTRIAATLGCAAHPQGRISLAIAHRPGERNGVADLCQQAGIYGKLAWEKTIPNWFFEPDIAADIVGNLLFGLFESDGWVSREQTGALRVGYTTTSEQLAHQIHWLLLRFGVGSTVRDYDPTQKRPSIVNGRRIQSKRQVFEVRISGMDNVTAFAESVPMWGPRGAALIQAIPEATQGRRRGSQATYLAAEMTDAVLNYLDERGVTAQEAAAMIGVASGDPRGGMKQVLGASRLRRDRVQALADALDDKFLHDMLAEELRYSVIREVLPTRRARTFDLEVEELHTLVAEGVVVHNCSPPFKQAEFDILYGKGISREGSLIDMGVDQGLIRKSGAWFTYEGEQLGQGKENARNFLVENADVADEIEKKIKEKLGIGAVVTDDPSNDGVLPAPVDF
# [19] = biological target: T8, Replicative DNA helicase DnaB (Mycobacterium tuberculosis, UniProt P9WMR3); assay: DnaB intein splicing inhibitors, dose response, biochemical, cell-free fluorescence (AID 449749); format: functional
# T8 sequence (P9WMR3 whole entry): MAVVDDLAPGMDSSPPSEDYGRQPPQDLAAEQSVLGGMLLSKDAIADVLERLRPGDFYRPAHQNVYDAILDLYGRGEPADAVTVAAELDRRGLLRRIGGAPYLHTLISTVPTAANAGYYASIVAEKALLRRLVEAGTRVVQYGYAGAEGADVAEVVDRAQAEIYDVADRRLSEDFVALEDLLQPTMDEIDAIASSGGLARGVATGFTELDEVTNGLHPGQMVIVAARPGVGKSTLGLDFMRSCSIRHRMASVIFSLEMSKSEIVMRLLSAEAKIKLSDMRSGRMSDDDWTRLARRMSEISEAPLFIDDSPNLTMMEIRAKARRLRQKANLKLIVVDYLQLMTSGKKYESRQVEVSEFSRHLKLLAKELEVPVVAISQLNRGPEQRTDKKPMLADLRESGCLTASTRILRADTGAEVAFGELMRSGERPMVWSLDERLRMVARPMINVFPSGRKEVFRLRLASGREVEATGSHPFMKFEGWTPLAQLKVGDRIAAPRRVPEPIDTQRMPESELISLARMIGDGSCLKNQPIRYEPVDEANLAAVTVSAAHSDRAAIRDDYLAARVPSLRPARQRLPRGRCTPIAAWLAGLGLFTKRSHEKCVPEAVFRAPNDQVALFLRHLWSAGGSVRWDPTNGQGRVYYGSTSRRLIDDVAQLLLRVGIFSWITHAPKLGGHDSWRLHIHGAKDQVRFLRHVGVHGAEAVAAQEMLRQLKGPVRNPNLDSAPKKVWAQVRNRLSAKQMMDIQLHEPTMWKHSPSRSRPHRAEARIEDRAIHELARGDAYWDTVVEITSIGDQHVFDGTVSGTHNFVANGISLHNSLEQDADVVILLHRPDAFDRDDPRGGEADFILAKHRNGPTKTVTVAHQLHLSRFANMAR
# T1 sequence (Q00975 whole entry): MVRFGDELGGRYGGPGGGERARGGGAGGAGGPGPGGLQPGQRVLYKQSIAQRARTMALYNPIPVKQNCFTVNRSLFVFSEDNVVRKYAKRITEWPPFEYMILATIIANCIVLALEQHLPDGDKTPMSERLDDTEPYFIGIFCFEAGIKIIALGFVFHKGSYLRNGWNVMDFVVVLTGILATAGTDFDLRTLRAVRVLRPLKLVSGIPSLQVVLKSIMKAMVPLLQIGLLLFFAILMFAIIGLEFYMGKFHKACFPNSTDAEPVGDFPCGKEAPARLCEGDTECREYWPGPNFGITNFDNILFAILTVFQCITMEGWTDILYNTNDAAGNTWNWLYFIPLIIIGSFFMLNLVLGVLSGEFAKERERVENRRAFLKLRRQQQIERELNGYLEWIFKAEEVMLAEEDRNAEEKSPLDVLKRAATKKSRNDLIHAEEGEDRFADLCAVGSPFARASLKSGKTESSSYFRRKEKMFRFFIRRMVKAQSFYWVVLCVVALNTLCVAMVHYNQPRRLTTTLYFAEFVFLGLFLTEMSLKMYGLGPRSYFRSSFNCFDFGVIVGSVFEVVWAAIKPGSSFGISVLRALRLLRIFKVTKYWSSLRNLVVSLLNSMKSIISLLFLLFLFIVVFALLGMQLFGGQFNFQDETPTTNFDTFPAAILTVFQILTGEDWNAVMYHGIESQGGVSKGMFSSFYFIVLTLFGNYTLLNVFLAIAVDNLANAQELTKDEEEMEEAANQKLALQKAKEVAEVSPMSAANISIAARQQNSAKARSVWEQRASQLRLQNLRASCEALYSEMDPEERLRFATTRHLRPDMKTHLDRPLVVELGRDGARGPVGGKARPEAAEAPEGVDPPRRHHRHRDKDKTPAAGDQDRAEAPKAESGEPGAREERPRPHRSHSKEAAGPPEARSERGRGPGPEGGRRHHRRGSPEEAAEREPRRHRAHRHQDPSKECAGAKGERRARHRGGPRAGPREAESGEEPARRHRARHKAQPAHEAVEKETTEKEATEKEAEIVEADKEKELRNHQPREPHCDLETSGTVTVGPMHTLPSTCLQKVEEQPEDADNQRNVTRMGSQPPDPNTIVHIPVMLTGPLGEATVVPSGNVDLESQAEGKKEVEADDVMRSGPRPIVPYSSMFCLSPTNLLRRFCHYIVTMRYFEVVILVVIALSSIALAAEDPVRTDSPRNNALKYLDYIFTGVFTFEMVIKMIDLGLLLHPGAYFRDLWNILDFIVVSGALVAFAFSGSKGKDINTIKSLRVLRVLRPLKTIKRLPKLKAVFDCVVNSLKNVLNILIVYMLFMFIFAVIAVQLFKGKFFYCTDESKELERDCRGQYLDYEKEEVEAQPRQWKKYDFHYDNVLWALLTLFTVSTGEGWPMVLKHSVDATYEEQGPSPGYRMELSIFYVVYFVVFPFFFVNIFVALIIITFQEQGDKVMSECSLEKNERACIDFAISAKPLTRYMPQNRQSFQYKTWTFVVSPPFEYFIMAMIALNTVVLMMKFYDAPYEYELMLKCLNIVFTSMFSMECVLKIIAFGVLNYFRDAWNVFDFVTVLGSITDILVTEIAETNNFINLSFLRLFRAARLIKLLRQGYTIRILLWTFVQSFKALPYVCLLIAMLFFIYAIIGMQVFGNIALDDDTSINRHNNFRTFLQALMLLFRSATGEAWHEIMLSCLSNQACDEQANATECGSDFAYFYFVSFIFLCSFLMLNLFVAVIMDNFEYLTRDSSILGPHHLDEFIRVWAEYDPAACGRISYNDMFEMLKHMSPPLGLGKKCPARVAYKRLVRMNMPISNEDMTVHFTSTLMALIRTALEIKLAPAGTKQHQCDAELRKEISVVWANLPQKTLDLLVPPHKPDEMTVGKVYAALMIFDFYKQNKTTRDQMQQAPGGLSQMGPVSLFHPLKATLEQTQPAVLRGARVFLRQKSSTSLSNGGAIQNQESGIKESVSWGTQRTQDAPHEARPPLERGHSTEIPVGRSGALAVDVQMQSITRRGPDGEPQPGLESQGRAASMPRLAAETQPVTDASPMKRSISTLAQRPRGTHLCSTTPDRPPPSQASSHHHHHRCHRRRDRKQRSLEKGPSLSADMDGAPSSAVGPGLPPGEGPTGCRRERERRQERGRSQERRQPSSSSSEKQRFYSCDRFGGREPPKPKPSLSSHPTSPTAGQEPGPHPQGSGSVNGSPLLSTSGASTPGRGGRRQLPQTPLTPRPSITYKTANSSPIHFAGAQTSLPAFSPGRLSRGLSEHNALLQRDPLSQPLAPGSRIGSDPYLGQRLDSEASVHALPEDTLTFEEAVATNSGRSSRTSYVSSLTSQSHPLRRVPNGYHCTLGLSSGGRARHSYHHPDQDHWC
# T1 sequence (Q02410 whole entry): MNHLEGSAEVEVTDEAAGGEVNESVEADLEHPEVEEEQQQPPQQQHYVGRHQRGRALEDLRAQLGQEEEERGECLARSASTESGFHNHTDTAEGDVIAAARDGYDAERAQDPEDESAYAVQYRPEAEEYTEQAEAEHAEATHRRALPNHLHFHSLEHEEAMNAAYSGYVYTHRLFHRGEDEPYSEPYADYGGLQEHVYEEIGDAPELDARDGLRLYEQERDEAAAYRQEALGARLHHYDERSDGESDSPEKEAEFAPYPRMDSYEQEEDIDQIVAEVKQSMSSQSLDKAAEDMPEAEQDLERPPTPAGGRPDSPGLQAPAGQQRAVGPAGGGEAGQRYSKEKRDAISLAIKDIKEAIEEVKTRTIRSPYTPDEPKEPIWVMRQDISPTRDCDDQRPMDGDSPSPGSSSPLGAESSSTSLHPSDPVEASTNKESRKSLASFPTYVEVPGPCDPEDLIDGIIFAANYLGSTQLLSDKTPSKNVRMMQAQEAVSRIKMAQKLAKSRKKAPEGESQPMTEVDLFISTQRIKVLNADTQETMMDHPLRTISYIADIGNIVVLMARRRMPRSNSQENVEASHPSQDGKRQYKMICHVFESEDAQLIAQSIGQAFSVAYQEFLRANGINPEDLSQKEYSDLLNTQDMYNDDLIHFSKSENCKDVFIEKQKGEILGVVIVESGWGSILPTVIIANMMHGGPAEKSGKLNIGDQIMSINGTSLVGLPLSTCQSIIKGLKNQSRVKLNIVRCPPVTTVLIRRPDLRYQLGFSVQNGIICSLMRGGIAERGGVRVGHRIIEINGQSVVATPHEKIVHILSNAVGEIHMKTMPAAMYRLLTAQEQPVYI
# T6 sequence (P11940 whole entry, the tested form may be a part): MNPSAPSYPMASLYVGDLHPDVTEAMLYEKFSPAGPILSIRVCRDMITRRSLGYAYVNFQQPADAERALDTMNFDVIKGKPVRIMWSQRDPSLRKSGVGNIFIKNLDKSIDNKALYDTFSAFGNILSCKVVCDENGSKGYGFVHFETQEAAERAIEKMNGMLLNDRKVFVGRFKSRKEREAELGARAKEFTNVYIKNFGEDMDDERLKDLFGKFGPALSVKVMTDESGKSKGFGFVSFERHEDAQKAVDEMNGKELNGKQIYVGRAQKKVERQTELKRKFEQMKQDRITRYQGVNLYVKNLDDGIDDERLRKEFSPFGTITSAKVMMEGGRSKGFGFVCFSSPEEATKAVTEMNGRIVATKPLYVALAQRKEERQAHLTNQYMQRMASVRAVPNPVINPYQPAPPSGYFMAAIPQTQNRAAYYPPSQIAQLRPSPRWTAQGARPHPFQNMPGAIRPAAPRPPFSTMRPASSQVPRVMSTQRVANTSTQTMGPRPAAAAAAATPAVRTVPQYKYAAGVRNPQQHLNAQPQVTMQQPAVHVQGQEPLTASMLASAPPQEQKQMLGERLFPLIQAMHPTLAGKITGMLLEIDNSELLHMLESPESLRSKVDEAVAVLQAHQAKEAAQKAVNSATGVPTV
# Sequence of Large T antigen (P03070 whole entry): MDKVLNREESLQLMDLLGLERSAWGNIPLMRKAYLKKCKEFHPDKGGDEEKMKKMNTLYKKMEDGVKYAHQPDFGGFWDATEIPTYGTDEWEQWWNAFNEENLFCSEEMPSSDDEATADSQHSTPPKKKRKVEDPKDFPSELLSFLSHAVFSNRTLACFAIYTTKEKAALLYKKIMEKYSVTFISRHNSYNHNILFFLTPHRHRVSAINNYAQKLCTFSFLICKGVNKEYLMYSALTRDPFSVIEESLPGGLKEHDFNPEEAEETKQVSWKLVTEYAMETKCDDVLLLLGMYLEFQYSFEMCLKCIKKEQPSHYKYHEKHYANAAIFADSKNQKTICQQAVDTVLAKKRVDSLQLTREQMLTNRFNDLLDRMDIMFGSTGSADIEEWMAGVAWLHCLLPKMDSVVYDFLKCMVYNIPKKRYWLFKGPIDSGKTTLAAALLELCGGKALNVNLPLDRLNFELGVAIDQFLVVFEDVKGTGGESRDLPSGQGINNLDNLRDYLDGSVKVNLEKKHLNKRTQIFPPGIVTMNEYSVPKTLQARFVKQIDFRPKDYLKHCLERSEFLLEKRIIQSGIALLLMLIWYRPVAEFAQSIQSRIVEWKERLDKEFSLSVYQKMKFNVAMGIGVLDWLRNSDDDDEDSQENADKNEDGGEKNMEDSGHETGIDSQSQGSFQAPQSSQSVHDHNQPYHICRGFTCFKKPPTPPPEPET
# Sequence of Induced myeloid leukemia cell differentiation protein Mcl-1 (Q07820 whole entry): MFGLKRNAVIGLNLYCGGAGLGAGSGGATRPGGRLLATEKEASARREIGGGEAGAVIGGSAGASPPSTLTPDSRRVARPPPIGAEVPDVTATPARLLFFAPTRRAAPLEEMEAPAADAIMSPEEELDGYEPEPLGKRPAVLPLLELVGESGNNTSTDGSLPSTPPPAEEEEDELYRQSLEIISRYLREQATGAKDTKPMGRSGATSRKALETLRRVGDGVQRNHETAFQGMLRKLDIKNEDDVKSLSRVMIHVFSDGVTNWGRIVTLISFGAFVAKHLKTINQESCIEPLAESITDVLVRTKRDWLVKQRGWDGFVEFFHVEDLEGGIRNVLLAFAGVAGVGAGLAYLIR
# Sequence of FAD-linked sulfhydryl oxidase ALR (P55789 whole entry): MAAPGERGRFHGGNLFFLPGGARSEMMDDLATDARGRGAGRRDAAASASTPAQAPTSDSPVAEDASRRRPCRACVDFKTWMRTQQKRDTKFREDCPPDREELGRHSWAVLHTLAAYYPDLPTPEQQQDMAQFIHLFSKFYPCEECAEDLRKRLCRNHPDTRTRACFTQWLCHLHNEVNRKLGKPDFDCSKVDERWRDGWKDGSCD
smiles,measurement,setting,value
O=[N+]([O-])c1ccc(-c2cc(-c3ccc(Cl)cc3)n[nH]2)cc1,IC50,[1],> 50 µM (inactive)
same,IC50,[2],> 56.8 µM (not active)
same,IC50,[3],2.5 µM (active)
CC(=O)Nc1nc(C)c(-c2csc(Nc3cccc([N+](=O)[O-])c3)n2)s1,EC50,[4],24.8 µM (active)
same,EC50,[5],14.1 µM (active)
same,IC50,HEK293 [6],17.1 µM (active)
same,EC50,[7],18.2 µM (active)
same,IC50,HEK293 [8],11.1 µM (active)
same,EC50,[9],0.995 µM (active)
same,AC50,HEK293 [10],2.16 µM (active)
same,IC50,HEK293 [11],8.61 µM (active)
same,EC50,HEK293 [12],9.4 µM (active)
Cc1c(/C=C/C(=O)c2ccccc2O)cnn1C,IC50,[13],14.2 µM (active)
same,IC50,[14],4.84 µM (active)
same,IC50,Caspase-3,15.3 µM (active)
same,IC50,[15],25.2 µM (active)
Cc1c(NC(=O)c2ccccc2N)cccc1C(=O)O,IC50,[13],9.43 µM (active)
same,IC50,[14],2.73 µM (active)
same,IC50,Caspase-3,38.1 µM (active)
same,IC50,[15],11.4 µM (active)
N#CC1=C(N)N=C(S)C(C(N)=O)C1c1ccccc1F (stereo not given),IC50,[16],> 66 µM (inactive)
same,IC50,[1],> 50 µM (inactive)
same,AC50,[17],8.62 µM (active)
same,IC50,[2],13.6 µM (active)
same,IC50,Large T antigen,60 µM (active)
same,IC50,[18],> 66 µM (inactive)
N#Cc1c(C#N)c(O)c2ccccc2c1O,EC50,Protein RecA,1.55 µM (active)
same,IC50,[1],25.8 µM (active)
same,IC50,[2],3.83 µM (active)
same,AC50,[19],> 380 µM (inactive)
